Where two headings read alike, the source gives them in different places.
Experiments:
[1] = target: T1, binding of His-XIAP(BIR2)-avi fusion protein to GST-RIPK2 fusion protein (RIPK2/XIAP) (Homo sapiens, UniProt O43353); assay: RIPK2-XIAP binding competition PPI assay (TR-FRET); settings: RIPK2/XIAP binding competition PPI assay; for Emax: read-out: PPI Amax bin; for IC50: read-out: PPI IC50 bin
T1 construct: made in house; host or cells: baculovirus infected Sf9 cells
Source text: The ability of selected compounds of Formula (I) to inhibit the binding of an His-XIAP(BIR2)-avi fusion protein to a GST-RIPK2 fusion protein was quantified employing the TR-FRET-based competition assay as described in the following paragraphs.
Recombinant fusion protein of N-terminal Glutathione-S-Transferase (GST) and a fragment of human RIPK2 (amino acids 1-310 of accession number 043353), expressed in baculovirus infected Sf9 cells, purified via glutathione affinity chromatography, was used as GST-RIPK2 fusion protein. Recombinant fusion protein of N-terminal 6×Histidine (His), a fragment of human XIAP (amino acids 152-231 of accession number P98170), and C-terminal avi tag, expressed in baculovirus infected Sf9 cells, purified via Nickel NTA affinity chromatography, was used as the His-XIAP(BIR2)-avi fusion protein.
For the assay, a working solution of 1 nM GST-RIPK2, 25 nM His-XIAP(BIR2)-avi, 6 nM Anti-His-XL665 […] (Revvity Catalogue No. 61HISXLB), and 0.5 nM Anti-GST-Tb (Revvity Catalogue No. 61GSTTLB) in 25 mM Tris-HCl 7.5, 0.5 mM ethylene glycol-bis(2-aminoethylether)-N,N,N′,N′-tetraacetic acid (EGTA), 10 mM magnesium chloride (MgCl2), 2.5 mM dithiothreitol (DTT), 0.01% (w/v) bovine serum albumin (BSA), 0.005% (w/v) Pluronic F-127 (Sigma), 0.5 mM sodium ortho-vanadate, 5 mM β-Glycerophosphate disodium salt hydrate (BGP) was prepared. 50 nL of a 100-fold concentrated solution of each test compound in DMSO was dispensed via acoustic dispensing into a white low volume 384-well microtiter plate (Perkin Elmer Catalogue No. 6008280). Subsequently, 5 μL of the assay working solution were added.
The resulting mixture was incubated 120 min at 23° C. Subsequently, the amount of complex formed by the GST-RIPK2, XIAP(BIR2)-avi, Anti-His-XL665, and Anti-GST-Tb was evaluated by measurement of the resonance energy transfer from the Tb-cryptate to the XL665. Therefore, the fluorescence emissions at 520 nm and 665 nm after excitation at 337 nm were measured in a TR-FRET reader, e.g. a Pherastar FS (BMG Labtechnologies, Offenburg, Germany) or an Envision (PerkinElmer). The ratio of the emissions at 665 nm and at 520 nm was taken as the measure of the amount of the complex. The data were normalized (assay reaction without inhibitor=0% activity, 50 nM of GSK583=−100% activity).
For the RIPK2/XIAP binding competition PPI assay Amax values, “A” denotes an Amax of ≥80%; “B” denotes an Amax of 80%>B≥55; “C” denotes an Amax of 55%>C>30; and “D” denotes an Amax of ≤30%.

[2] = tested on: NF-κB pathway (SEAP) in THP1-Dual cells; assay: THP-1 Dual cell SEAP assay (L18-MDP stimulated); assay type: cell-based; settings: read-out: NF-κB THP1 IC50 bin
Protocol: THP1-Dual™ cells (InvivoGen Cat #thpd-nfis) allow simultaneous assessment of the NF-κB pathway, by monitoring the activity of secreted embryonic alkaline phosphatase (SEAP) as well as the IRF pathway, by assessing the activity of a secreted luciferase (Lucia). Cells were cultured according to manufacturers' recommendations. For the assay, cell concentration was adjusted to 7.14×10^5 cells/mL in assay media (RPMI 1640, 2 mM L-Glutamine, 25 mM HEPES, 10% fetal bovine serum (heat-inactivated for 30 min at 56° C.), Pen-Strep (100 U/mL)) and 35 µL of cell suspension (˜25,000 cells) per well were added to a flat bottom 384-well plate (white opaque). Plate was centrifuged at 300 g for 2 min, compounds were added in serial dilution series according to the plate layout (volumes ˜500 nL-0.0152 nL) and plate was incubated at 37° C. in 5% CO2 for 30 min. Using assay media, a L18-MDP stock solution, that results in a final concentration of 10 ng/mL L18-MDP in each well when adding 15 μL to each well, was prepared. 15 μL of L18-MDP stock solution was added to each well, while 15 μL of assay media was added to the negative control wells. Plates were subsequently incubated at 37° C. in 5% CO2 overnight (20-24 h).
For the SEAP assay: without disturbing the cells at the bottom of the well, 15 μL supernatant was transferred to a clear 384-well flat bottom plate and 35 μL QUANTI-Blue Solution per well was added. Following a 2 h incubation at 37° C., the optical density (OD) was measured at 620-655 nm using a microplate reader (PheraStar FS microplate reader with protocol for OD 620-655 nm).
Values of media-only wells were subtracted and % inhibition for each compound concentration relative to the DMSO/L18-MDP-treated controls was calculated. Inhibition values+/−SD were fitted by non-linear regression using Prism software (GraphPad PRISM Software) to calculate IC50 values.

T1 sequence (O43353 1-310 limits assumed): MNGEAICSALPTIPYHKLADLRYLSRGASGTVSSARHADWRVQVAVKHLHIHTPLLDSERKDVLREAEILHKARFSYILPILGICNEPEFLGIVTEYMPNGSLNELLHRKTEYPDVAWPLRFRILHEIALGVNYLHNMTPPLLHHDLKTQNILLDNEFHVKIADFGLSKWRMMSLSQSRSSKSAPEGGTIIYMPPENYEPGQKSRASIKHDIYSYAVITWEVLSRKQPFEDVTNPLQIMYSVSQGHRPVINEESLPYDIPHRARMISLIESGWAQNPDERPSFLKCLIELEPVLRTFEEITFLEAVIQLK

In the case of COc1cc2ncc(-c3cc(F)c(OC)c(NS(=O)(=O)c4cnn(C)c4)c3)n2cc1S(=O)(=O)C(C)C [Example 262, N-(3-fluoro-5-(6-(isopropylsulfonyl)-7-methoxyimidazo[1,2-a]pyridin-3-yl)-2-methoxyphenyl)-1-methyl-1H-pyrazole-4-sulfonamide], the Emax ([1]; Amax) is reported as > 80%, the IC50 [1] is reported as < 1 nM and the IC50 ([2]; Homo sapiens, THP1-Dual) is reported as < 50 nM.
In the case of COc1cc2ncc(-c3cc(F)c(OC)c(NS(=O)(=O)c4cnn(C)c4)c3)n2cc1C(F)(F)F [Example 136, N-(3-fluoro-2-methoxy-5-(7-methoxy-6-(trifluoromethyl)imidazo[1,2-a]pyridin-3-yl)phenyl)-1-methyl-1H-pyrazole-4-sulfonamide], the Emax ([1]; Amax) is reported as > 80%, the IC50 [1] is reported as 2.5 to 20 nM and the IC50 ([2]; Homo sapiens, THP1-Dual) is reported as 250 to 1000 nM.
For C[C@H](O)COc1cc2ncc(-c3cc4cc[nH]c4nc3F)n2cc1S(=O)(=O)C(C)(C)C [Example 268, (S)-1-((6-(tert-butylsulfonyl)-3-(6-fluoro-1H-pyrrolo[2,3-b]pyridin-5-yl)imidazo[1,2-a]pyridin-7-yl)oxy)propan-2-ol], the Emax ([1]; Amax) was > 80%, the IC50 [1] was < 1 nM and the IC50 ([2]; Homo sapiens, THP1-Dual) was < 50 nM.
With COc1cc2ncc(-c3cc(F)c(OC)c(NS(=O)(=O)c4cnc(C)s4)c3)n2cc1S(=O)(=O)C(C)(C)C [Example 287, N-(5-(6-(tert-butylsulfonyl)-7-methoxyimidazo[1,2-a]pyridin-3-yl)-3-fluoro-2-methoxyphenyl)-2-methylthiazole-5-sulfonamide] the Emax ([1]; Amax) was 55 to 80%, the IC50 [1] was < 1 nM and the IC50 ([2]; Homo sapiens, THP1-Dual) was 50 to 250 nM.
For COc1cc2ncc(-c3cc(NS(=O)(=O)c4cnn(C)c4)c(OC)c(OC)c3)n2cc1N1CCCC1=O [Example 273, N-(2,3-dimethoxy-5-(7-methoxy-6-(2-oxopyrrolidin-1-yl)imidazo[1,2-a]pyridin-3-yl)phenyl)-1-methyl-1H-pyrazole-4-sulfonamide], the Emax ([1]; Amax) was > 80%, the IC50 [1] was 1 to 2.5 nM and the IC50 ([2]; Homo sapiens, THP1-Dual) was 250 to 1000 nM.
CC(=O)COc1cc2ncc(-c3cc(Cl)c(N)nc3F)n2cc1S(=O)(=O)C(C)(C)C [Example 300, 1-((3-(6-amino-5-chloro-2-fluoropyridin-3-yl)-6-(tert-butylsulfonyl)imidazo[1,2-a]pyridin-7-yl)oxy)propan-2-one] was tested, and the Emax ([1]; Amax) was > 80%, the IC50 [1] was 2.5 to 20 nM and the IC50 ([2]; Homo sapiens, THP1-Dual) was 250 to 1000 nM.
For COc1cc2ncc(-c3cc(F)c(OC)c(NS(=O)(=O)c4csc(C)n4)c3)n2cc1S(=O)(=O)C(C)(C)C [Example 291, N-(5-(6-(tert-butylsulfonyl)-7-methoxyimidazo[1,2-a]pyridin-3-yl)-3-fluoro-2-methoxyphenyl)-2-methylthiazole-4-sulfonamide], the Emax ([1]; Amax) was 55 to 80%, the IC50 [1] was < 1 nM and the IC50 ([2]; Homo sapiens, THP1-Dual) was < 50 nM.
For CC(F)(CO)COc1cc2ncc(-c3cc(Cl)c(N)nc3F)n2cc1S(=O)(=O)C(C)(C)C (single isomer, unassigned) [Example 265], the Emax ([1]; Amax) was > 80%, the IC50 [1] was 1 to 2.5 nM and the IC50 ([2]; Homo sapiens, THP1-Dual) was 50 to 250 nM.
With COc1cc2ncc(-c3cc(F)c(OC)c(NS(=O)(=O)c4cnc(C)o4)c3)n2cc1S(=O)(=O)C(C)(C)C [Example 290, N-(5-(6-(tert-butylsulfonyl)-7-methoxyimidazo[1,2-a]pyridin-3-yl)-3-fluoro-2-methoxyphenyl)-2-methyloxazole-5-sulfonamide] the Emax ([1]; Amax) was < 30%, the IC50 [1] was > 20 nM and the IC50 ([2]; Homo sapiens, THP1-Dual) was > 1000 nM.
For COc1cc2ncc(-c3cc(F)c(OC)c(NS(=O)(=O)c4cc(C)no4)c3)n2cc1S(=O)(=O)C(C)(C)C [Example 288, N-(5-(6-(tert-butylsulfonyl)-7-methoxyimidazo[1,2-a]pyridin-3-yl)-3-fluoro-2-methoxyphenyl)-3-methylisoxazole-5-sulfonamide], the Emax ([1]; Amax) was < 30%, the IC50 [1] was > 20 nM and the IC50 ([2]; Homo sapiens, THP1-Dual) was > 1000 nM.
In the case of CC(F)(CO)COc1cc2ncc(-c3cc(F)c(N)nc3F)n2cc1S(=O)(=O)C(C)(C)C (single isomer, unassigned) [Example 260], the Emax ([1]; Amax) is reported as > 80%, the IC50 [1] is reported as 1 to 2.5 nM and the IC50 ([2]; Homo sapiens, THP1-Dual) is reported as 50 to 250 nM.
With COc1cc2ncc(-c3cc(F)c(OC)c(NS(=O)(=O)c4coc(C)n4)c3)n2cc1S(=O)(=O)C(C)(C)C [Example 293, N-(5-(6-(tert-butylsulfonyl)-7-methoxyimidazo[1,2-a]pyridin-3-yl)-3-fluoro-2-methoxyphenyl)-2-methyloxazole-4-sulfonamide] the Emax ([1]; Amax) was 30 to 55%, the IC50 [1] was < 1 nM and the IC50 ([2]; Homo sapiens, THP1-Dual) was < 50 nM.
COc1cc2ncc(-c3cc(F)c(OC)c(NS(=O)(=O)c4cc(C)ns4)c3)n2cc1S(=O)(=O)C(C)(C)C [Example 289, N-(5-(6-(tert-butylsulfonyl)-7-methoxyimidazo[1,2-a]pyridin-3-yl)-3-fluoro-2-methoxyphenyl)-3-methylisothiazole-5-sulfonamide] was tested, and the Emax ([1]; Amax) was 30 to 55%, the IC50 [1] was < 1 nM and the IC50 ([2]; Homo sapiens, THP1-Dual) was 50 to 250 nM.
For COc1cc2ncc(-c3cccc(NS(=O)(=O)c4cnn(C)c4)c3)n2cc1S(=O)(=O)C(C)(C)C [Example 294, N-(3-(6-(tert-butylsulfonyl)-7-methoxyimidazo[1,2-a]pyridin-3-yl)phenyl)-1-methyl-1H-pyrazole-4-sulfonamide], the Emax ([1]; Amax) was > 80%, the IC50 [1] was < 1 nM and the IC50 ([2]; Homo sapiens, THP1-Dual) was 50 to 250 nM.
With C[C@H](O)COc1cc2ncc(-c3ccc(N)nc3F)n2cc1S(=O)(=O)C(C)(C)C [Example 267, (S)-1-((3-(6-amino-2-fluoropyridin-3-yl)-6-(tert-butylsulfonyl)imidazo [1,2-a]pyridin-7-yl)oxy)propan-2-ol] the Emax ([1]; Amax) was > 80%, the IC50 [1] was 2.5 to 20 nM and the IC50 ([2]; Homo sapiens, THP1-Dual) was > 1000 nM.
In the case of COc1cc2ncc(-c3cc(Cl)c(OC)c(NS(=O)(=O)c4cnn(C)c4)c3)n2cc1S(=O)(=O)C(C)(C)C [Example 283, N-(5-(6-(tert-butylsulfonyl)-7-methoxyimidazo[1,2-a]pyridin-3-yl)-3-chloro-2-methoxyphenyl)-1-methyl-1H-pyrazole-4-sulfonamide], the Emax ([1]; Amax) is reported as > 80%, the IC50 [1] is reported as < 1 nM and the IC50 ([2]; Homo sapiens, THP1-Dual) is reported as < 50 nM.
COc1cc2ncc(-c3cc(F)c(OC)c(NS(=O)(=O)c4cn[nH]c4)c3)n2cc1S(=O)(=O)C(C)(C)C [Example 140, N-(5-(6-(tert-butylsulfonyl)-7-methoxyimidazo[1,2-a]pyridin-3-yl)-3-fluoro-2-methoxyphenyl)-1H-pyrazole-4-sulfonamide] was tested, and the Emax ([1]; Amax) was > 80%, the IC50 [1] was < 1 nM and the IC50 ([2]; Homo sapiens, THP1-Dual) was < 50 nM.
COc1cc2ncc(-c3cc(NS(=O)(=O)c4cnn(C)c4)c(OC)c(OC)c3)n2cc1N1CC(C)CC1=O (single isomer, unassigned) [Example 275] was tested, and the “PPI Amax bin” value ([1]; Amax) was “A (an Amax of ≥80%)”, the IC50 [1] was 1 to 2.5 nM and the IC50 [2] was 50 to 250 nM.
